For orientation: inhibition means the change of the read-out against control, counted positive when it falls.

The structures appear in SMILES notation.

The values that follow come from article PMC11233931, “Remodeling tumor‐associated macrophage for anti‐cancer effects by rational design of irreversible inhibition of mitogen‐activated protein kinase‐activated protein kinase 2” (MedComm, 2024).

Assay in all cases: Eurofins kinase selectivity profile against 380 other human recombinant kinases (Table S2)
Holding throughout (assay type): biochemical

Test [1] addresses T1, 380 human recombinant protein kinases (Homo sapiens, UniProt O43781).
T1 construct: purchased Eurofins (Celle Lévescault)
T1 sequence (O43781 1-588): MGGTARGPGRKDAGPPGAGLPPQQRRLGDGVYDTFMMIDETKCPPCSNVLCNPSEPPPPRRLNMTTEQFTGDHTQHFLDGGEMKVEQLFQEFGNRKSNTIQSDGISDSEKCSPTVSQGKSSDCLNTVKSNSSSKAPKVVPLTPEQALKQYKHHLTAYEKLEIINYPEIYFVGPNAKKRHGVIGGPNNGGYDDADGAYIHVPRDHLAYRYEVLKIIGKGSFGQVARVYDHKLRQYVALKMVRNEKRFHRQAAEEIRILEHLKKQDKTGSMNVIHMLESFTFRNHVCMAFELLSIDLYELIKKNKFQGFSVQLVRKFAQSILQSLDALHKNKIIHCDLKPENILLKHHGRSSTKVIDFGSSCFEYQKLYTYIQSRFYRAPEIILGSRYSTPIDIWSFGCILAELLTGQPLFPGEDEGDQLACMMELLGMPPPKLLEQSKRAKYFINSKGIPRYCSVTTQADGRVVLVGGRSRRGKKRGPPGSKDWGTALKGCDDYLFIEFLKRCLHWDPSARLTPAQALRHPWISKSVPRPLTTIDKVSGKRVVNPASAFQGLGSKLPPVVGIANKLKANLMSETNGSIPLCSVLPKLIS
Particulars: DYRK3(h), read-out: Inhibition rate. A digest of the protocol:
(§1)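 Selectivity panel of 380 human recombinant protein kinases, screened by Eurofins at a range of concentrations.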

The target in test [2] is T2, 380 human recombinant protein kinases (Homo sapiens, UniProt Q8IVW4).
T2 construct: purchased Eurofins (Celle Lévescault)
T2 sequence (Q8IVW4 whole entry): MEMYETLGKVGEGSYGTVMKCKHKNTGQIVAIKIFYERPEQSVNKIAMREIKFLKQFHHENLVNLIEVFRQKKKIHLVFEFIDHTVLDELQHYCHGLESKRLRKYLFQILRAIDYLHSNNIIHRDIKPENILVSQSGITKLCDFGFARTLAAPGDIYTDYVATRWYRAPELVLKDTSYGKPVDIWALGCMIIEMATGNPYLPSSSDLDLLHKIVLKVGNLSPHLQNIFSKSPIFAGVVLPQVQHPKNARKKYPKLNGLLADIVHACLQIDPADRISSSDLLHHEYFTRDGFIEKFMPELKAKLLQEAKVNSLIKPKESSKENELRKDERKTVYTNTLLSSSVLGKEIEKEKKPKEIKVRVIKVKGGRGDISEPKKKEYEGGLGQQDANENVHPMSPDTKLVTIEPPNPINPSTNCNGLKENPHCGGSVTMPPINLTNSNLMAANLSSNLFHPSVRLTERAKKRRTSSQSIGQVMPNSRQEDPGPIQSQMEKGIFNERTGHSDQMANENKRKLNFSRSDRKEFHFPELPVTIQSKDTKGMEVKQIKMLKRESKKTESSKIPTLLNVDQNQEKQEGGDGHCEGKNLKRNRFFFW
Particulars: CDKL3(h), read-out: Inhibition rate. In short, it runs like this:
as §1

Test [3] deals with T3, 380 human recombinant protein kinases (Homo sapiens, UniProt Q96NX5).
T3 construct: purchased Eurofins (Celle Lévescault)
T3 sequence (Q96NX5 whole entry): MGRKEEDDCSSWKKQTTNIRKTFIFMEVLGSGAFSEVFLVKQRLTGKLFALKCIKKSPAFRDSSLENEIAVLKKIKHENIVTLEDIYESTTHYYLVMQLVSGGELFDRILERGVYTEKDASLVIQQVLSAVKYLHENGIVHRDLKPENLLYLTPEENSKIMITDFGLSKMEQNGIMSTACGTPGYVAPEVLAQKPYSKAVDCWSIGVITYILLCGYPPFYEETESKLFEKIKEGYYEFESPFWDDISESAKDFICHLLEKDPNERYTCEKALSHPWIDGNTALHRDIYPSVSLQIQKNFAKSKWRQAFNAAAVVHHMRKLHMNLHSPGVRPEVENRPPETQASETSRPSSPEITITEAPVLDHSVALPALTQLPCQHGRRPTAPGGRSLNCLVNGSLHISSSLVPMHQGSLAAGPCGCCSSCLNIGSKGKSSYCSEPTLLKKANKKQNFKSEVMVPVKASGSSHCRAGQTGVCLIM
Particulars: CaMKIγ(h), read-out: Inhibition rate. A digest of the protocol:
as §1

Test [4] addresses T4, 380 human recombinant protein kinases (Homo sapiens, UniProt P54764).
T4 construct: purchased Eurofins (Celle Lévescault)
Particulars: EphA4(h), read-out: Inhibition rate. A digest of the protocol:
as §1

Test [5] has as its target T5, 380 human recombinant protein kinases (Homo sapiens, UniProt Q14680).
T5 construct: purchased Eurofins (Celle Lévescault)
The settings on record: MELK(h), read-out: Inhibition rate. A digest of the protocol: as §1

Test [6] deals with T6, 380 human recombinant protein kinases (Homo sapiens, UniProt P35626).
T6 construct: purchased Eurofins (Celle Lévescault)
T6 sequence (P35626 1-688): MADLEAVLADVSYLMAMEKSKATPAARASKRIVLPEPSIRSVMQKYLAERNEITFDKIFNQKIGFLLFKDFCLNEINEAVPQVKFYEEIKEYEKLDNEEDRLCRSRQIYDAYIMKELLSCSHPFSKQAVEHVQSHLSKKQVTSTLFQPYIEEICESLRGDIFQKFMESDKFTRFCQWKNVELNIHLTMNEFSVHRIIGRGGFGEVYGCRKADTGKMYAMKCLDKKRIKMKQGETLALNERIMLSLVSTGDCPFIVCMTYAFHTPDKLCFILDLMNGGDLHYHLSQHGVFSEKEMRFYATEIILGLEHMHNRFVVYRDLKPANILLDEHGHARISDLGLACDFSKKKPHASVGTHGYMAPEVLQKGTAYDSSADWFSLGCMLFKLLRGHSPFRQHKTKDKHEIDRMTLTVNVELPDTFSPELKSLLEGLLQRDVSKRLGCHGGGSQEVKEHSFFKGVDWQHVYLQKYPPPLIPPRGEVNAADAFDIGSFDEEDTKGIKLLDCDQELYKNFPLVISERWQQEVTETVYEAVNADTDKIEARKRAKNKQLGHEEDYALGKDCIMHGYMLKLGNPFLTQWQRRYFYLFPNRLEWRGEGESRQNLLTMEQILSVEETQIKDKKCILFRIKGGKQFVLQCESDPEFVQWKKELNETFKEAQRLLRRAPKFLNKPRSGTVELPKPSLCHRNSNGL
Particulars: GRK3(h), read-out: Inhibition rate. In short, it runs like this: as §1

The target in test [7] is T7, 380 human recombinant protein kinases (Homo sapiens, UniProt Q99986).
T7 construct: purchased Eurofins (Celle Lévescault)
T7 sequence (Q99986 1-396): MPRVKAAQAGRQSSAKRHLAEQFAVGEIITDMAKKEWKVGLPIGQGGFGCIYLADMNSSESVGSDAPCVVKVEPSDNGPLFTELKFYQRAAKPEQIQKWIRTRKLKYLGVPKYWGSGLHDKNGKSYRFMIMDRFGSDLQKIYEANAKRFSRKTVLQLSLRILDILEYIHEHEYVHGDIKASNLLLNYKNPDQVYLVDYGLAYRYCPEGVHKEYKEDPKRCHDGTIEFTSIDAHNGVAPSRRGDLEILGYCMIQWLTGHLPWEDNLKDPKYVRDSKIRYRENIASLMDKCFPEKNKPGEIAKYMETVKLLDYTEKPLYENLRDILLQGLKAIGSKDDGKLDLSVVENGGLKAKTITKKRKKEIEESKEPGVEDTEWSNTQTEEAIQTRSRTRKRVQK
Particulars: VRK1(h), read-out: Inhibition rate (%). A digest of the protocol: as §1

For test [8], the target named is T8, 380 human recombinant protein kinases (Homo sapiens, UniProt Q92918).
T8 construct: purchased Eurofins (Celle Lévescault)
T8 sequence (Q92918 whole entry): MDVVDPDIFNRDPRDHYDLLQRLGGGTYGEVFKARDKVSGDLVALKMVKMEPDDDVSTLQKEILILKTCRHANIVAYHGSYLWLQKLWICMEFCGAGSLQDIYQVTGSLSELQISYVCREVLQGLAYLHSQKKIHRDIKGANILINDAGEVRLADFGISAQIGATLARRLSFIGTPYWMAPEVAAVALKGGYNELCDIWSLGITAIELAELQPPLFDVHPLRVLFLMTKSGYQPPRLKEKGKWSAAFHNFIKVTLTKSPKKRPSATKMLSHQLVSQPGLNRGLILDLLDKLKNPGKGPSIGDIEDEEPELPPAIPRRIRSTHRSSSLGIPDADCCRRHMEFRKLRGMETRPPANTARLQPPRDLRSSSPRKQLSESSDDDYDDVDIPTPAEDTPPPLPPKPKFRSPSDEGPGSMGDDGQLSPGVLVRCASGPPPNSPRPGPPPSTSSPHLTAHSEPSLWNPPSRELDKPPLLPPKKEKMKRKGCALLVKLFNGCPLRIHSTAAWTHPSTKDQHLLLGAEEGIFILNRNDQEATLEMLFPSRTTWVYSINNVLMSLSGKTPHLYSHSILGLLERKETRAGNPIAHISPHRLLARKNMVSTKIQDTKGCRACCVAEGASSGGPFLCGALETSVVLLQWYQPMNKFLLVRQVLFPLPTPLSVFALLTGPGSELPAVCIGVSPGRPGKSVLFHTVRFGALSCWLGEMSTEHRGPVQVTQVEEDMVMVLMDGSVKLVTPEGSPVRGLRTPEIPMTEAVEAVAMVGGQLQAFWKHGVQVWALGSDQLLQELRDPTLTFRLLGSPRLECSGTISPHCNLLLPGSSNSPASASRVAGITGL
The settings on record: HPK1(h), read-out: Inhibition rate. A digest of the protocol:
as §1

T5 sequence (Q14680 whole entry): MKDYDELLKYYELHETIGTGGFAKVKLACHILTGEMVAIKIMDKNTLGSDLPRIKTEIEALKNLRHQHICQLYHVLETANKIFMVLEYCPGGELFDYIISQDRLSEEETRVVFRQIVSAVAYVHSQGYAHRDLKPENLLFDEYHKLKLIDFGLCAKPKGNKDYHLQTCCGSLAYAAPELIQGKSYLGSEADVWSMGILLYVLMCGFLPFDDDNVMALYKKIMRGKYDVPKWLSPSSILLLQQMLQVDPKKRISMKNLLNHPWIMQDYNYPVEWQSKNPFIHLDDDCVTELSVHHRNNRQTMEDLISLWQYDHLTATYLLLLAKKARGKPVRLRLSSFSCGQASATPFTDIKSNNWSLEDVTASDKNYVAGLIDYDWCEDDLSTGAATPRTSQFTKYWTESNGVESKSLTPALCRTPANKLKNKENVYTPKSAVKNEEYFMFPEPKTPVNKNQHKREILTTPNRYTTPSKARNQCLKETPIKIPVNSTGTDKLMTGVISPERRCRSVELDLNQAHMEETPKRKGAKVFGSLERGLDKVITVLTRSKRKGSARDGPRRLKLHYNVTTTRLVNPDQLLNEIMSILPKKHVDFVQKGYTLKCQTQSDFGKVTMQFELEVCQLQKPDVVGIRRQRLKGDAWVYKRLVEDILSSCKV
T4 sequence (P54764 20-986): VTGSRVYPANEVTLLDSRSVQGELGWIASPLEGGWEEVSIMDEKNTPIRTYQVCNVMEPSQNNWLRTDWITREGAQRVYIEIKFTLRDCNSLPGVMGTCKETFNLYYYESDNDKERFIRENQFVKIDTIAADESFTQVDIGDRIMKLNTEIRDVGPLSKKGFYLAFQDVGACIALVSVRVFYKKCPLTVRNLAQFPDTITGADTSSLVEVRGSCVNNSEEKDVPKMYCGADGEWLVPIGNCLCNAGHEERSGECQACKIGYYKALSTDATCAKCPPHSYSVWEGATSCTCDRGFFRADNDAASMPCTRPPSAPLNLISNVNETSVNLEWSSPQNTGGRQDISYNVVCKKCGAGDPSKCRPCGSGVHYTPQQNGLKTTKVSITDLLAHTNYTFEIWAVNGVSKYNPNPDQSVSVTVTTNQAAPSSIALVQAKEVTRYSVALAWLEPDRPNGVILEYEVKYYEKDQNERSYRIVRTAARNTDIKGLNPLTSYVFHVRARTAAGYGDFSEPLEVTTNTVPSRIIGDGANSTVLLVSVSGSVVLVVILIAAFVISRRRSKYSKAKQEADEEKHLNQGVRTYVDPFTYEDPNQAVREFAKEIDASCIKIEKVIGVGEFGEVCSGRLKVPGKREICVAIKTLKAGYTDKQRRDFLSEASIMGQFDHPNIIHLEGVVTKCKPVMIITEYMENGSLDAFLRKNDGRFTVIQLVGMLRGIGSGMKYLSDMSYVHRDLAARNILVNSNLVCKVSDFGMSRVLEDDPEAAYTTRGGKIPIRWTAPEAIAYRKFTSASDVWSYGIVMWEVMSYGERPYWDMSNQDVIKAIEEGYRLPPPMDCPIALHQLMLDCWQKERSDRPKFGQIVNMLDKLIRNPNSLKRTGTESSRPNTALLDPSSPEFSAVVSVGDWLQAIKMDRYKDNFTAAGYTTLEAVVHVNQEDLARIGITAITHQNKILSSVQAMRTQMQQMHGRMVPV

As to `C=CC(=O)Nc1cc(-c2cc(-c3cc4c([nH]3)CCNC4=O)ccn2)ccc1OC(F)(F)F` [compound 11], the inhibition at 0.01 µM in test [1] (10 nM) is 34%; in test [2] (10 nM), 52%; in test [3] (10 nM) it was -9%; in test [4] (10 nM), -1%; in test [5] (10 nM) it was -7%; in test [6] (10 nM) it was -3%. Moreover, the inhibition at 0.01 µM was 1% in test [7] (10 nM) and -8% in test [8] (10 nM). The inhibition at 0.1 µM in test [1] (100 nM) is 83%; in test [2] (100 nM) it was 88%; in test [3] (100 nM), -14%; in test [4] (100 nM), 3%; in test [5] (100 nM), 5%; in test [6] (100 nM), -8%. Further, the values for the inhibition at 0.1 µM in test [7] (100 nM) and in test [8] (100 nM) were 1% and -15%, respectively. The inhibition at 1 µM was 95% in test [1] (1000 nM); 99% in test [2] (1000 nM); -15% in test [3] (1000 nM); -7% in test [4] (1000 nM); 30% in test [5] (1000 nM); -2% in test [6] (1000 nM). The inhibition at 1 µM in test [7] (1000 nM) worked out at 5%; in test [8] (1000 nM), 1%.
